Paper PMC5053573, “Structure-Based Design of Tetrahydroisoquinoline-7-carboxamides as Selective Discoidin Domain Receptor 1 (DDR1) Inhibitors” (Journal of Medicinal Chemistry, 2016)

What was measured:
Test in all cases: biochemical
Conditions in all cases: read-out: %Ctrl @ 1000nM
PIK3CA(M1043I) = PIK3CA(M1043I) (Homo sapiens, UniProt P42336, M1043I)
PFTK1 = target: T1, PFTK1 (Homo sapiens, UniProt O94921)
T1 construct: gene CDK14

PLK2 = PLK2 (Homo sapiens, UniProt Q9NYY3)
FLT3 = FLT3 (Homo sapiens, UniProt P36888)
SNARK = target: T2, SNARK (Homo sapiens, UniProt Q9H093)
T2 construct: gene NUAK2

[1] = target: ABL1(M351T)-phosphorylated (Homo sapiens, UniProt P00519, M351T)
FLT3(ITD,F691L) = FLT3(ITD,F691L) (Homo sapiens, UniProt P36888, F691L/ITD)
MAP4K2 = MAP4K2 (Homo sapiens, UniProt Q12851)
CSNK1A1L = CSNK1A1L (Homo sapiens, UniProt Q8N752)
TNNI3K = TNNI3K (Homo sapiens, UniProt Q59H18)
PHKG2 = PHKG2 (Homo sapiens, UniProt P15735)
MAK = MAK (Homo sapiens, UniProt P20794)
ITK = ITK (Homo sapiens, UniProt Q08881)
CSNK1G3 = CSNK1G3 (Homo sapiens, UniProt Q9Y6M4)
DAPK3 = DAPK3 (Homo sapiens, UniProt O43293)
[2] = target: RPS6KA4(Kin.Dom.2-C-terminal) (Homo sapiens, UniProt O75676)
DCAMKL1 = target: T3, DCAMKL1 (Homo sapiens, UniProt O15075)
T3 construct: gene DCLK1

EPHA8 = EPHA8 (Homo sapiens, UniProt P29322)
PIK3C2B = PIK3C2B (Homo sapiens, UniProt O00750)
PAK2 = PAK2 (Homo sapiens, UniProt Q13177)
TEC = TEC (Homo sapiens, UniProt P42680)
PIK3CA(H1047L) = PIK3CA(H1047L) (Homo sapiens, UniProt P42336, H1047L)
TIE1 = TIE1 (Homo sapiens, UniProt P35590)
[3] = target: EGFR(L747-E749del, A750P) (Homo sapiens, UniProt P00533, A750P/DEL747-749)
EGFR(T790M) = EGFR(T790M) (Homo sapiens, UniProt P00533, T790M)
ALK(C1156Y) = ALK(C1156Y) (Homo sapiens, UniProt Q9UM73, C1156Y)
CDK9 = CDK9 (Homo sapiens, UniProt P50750)
MEK5 = target: T4, MEK5 (Homo sapiens, UniProt Q13163)
T4 construct: gene MAP2K5

PIK3CA(H1047Y) = PIK3CA(H1047Y) (Homo sapiens, UniProt P42336, H1047Y)
TBK1 = TBK1 (Homo sapiens, UniProt Q9UHD2)
LRRK2 = LRRK2 (Homo sapiens, UniProt Q5S007)
ERBB3 = ERBB3 (Homo sapiens, UniProt P21860)
PIKFYVE = PIKFYVE (Homo sapiens, UniProt Q9Y2I7)
TAOK1 = TAOK1 (Homo sapiens, UniProt Q7L7X3)

Sequence of PIK3CA(H1047Y) (P42336 whole entry H1047Y): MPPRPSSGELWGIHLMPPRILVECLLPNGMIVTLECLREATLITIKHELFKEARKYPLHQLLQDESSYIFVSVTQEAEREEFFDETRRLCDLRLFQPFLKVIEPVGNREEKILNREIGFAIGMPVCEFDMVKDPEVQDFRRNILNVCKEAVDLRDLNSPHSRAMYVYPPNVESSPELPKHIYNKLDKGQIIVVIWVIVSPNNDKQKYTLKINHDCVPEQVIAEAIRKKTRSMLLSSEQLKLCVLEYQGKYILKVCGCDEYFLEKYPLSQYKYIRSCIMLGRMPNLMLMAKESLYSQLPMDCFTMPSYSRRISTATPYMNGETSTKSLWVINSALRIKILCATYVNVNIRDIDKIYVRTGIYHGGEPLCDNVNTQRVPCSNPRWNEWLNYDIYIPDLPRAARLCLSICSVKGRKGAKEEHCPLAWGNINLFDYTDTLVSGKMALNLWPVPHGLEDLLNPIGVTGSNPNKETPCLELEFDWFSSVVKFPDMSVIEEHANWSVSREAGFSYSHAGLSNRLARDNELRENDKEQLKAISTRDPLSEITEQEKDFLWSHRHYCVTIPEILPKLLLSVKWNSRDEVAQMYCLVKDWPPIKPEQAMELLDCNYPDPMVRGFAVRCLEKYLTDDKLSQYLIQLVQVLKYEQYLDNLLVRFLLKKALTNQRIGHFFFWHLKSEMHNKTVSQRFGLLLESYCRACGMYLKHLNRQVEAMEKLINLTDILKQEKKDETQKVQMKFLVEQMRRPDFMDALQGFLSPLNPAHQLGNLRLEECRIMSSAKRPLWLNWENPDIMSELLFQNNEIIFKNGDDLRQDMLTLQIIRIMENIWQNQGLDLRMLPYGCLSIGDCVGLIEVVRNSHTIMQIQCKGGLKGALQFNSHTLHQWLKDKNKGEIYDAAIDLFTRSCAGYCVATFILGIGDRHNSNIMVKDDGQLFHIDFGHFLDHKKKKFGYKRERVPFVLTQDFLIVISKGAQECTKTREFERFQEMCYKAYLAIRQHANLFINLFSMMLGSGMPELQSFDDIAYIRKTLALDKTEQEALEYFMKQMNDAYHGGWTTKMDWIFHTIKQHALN
Sequence of MAP4K2 (Q12851 whole entry): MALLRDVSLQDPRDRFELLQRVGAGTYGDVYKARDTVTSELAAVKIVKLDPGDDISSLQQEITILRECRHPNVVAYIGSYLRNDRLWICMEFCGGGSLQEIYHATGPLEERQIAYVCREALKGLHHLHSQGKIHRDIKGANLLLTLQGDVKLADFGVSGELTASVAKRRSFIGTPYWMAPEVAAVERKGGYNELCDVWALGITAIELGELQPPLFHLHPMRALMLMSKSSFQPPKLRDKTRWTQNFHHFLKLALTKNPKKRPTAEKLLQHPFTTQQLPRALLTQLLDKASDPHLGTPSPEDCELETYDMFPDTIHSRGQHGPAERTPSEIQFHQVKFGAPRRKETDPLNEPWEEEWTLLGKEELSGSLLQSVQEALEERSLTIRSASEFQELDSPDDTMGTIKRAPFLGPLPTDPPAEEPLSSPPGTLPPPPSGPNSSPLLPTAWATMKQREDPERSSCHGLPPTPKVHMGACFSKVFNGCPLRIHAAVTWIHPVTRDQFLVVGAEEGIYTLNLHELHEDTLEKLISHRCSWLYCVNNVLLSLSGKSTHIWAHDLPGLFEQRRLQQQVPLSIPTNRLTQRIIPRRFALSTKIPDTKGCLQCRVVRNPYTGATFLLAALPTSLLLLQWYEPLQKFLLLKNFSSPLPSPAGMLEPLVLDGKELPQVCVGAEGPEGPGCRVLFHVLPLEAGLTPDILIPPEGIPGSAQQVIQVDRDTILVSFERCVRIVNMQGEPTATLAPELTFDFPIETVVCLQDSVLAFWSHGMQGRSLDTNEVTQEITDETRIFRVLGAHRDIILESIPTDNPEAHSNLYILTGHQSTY
Sequence of PIK3CA(H1047L) (P42336 whole entry H1047L): as the sequence (P42336 whole entry H1047Y) above, with Y1047L counted along it
T3 sequence (O15075 whole entry): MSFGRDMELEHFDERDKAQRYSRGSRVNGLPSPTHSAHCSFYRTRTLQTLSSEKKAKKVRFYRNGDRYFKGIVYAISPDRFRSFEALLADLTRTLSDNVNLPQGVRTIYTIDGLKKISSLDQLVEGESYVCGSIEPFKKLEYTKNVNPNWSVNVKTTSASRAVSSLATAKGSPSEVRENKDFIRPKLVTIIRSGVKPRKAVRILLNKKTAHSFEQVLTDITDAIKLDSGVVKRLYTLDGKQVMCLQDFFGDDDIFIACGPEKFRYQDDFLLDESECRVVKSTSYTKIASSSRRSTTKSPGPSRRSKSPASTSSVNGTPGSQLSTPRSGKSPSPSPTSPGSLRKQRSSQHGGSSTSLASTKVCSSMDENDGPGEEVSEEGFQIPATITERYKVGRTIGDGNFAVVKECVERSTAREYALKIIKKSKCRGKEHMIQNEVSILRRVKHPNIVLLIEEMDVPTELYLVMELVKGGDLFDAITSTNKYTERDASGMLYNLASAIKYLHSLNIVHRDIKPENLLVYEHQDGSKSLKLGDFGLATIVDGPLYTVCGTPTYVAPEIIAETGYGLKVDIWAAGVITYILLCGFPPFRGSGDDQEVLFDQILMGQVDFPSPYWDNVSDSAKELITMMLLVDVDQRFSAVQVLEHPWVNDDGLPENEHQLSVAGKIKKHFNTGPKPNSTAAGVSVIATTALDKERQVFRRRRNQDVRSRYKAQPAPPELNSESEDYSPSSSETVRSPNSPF
Sequence of PIK3C2B (O00750 whole entry): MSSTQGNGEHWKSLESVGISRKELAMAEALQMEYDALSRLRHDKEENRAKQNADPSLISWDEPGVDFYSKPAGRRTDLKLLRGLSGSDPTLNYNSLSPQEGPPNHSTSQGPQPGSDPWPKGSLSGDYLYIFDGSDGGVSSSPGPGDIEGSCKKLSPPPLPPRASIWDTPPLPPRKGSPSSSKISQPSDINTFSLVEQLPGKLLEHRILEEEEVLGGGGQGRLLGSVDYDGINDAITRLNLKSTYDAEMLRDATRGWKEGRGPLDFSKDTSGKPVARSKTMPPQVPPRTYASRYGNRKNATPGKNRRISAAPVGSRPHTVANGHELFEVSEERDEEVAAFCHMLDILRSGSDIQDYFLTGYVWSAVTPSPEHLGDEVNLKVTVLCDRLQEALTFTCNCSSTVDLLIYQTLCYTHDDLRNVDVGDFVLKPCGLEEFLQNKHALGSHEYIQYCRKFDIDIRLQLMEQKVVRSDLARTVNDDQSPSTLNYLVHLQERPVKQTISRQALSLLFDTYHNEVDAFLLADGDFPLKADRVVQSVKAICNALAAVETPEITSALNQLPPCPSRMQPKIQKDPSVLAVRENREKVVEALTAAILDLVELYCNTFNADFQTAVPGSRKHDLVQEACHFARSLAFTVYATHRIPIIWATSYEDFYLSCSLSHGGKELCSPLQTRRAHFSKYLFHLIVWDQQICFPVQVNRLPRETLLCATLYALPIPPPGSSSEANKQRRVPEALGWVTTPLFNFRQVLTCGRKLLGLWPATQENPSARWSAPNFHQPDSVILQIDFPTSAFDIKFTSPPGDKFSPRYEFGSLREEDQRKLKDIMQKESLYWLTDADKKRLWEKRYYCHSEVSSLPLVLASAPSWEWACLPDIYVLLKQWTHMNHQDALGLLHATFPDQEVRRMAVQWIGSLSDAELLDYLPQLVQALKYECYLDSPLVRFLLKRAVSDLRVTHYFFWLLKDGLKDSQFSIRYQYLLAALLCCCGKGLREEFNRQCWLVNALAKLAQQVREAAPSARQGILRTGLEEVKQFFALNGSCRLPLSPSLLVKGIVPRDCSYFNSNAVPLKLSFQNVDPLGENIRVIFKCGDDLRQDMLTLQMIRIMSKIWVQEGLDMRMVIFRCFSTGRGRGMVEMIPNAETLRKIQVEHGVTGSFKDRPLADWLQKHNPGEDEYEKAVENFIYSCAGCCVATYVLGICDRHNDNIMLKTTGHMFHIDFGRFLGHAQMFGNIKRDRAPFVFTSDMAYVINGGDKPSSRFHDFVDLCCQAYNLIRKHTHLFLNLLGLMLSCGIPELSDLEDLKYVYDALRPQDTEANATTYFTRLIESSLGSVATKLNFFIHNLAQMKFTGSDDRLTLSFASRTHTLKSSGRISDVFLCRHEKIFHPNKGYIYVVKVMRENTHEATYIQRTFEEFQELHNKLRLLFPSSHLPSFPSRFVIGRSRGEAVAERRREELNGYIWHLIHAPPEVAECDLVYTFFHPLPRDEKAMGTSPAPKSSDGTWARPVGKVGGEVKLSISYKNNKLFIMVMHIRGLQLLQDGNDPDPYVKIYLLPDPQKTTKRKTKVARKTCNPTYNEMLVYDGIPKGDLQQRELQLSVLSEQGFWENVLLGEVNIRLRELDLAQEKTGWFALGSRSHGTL
Sequence of RPS6KA4(Kin.Dom.2-C-terminal) (O75676 whole entry): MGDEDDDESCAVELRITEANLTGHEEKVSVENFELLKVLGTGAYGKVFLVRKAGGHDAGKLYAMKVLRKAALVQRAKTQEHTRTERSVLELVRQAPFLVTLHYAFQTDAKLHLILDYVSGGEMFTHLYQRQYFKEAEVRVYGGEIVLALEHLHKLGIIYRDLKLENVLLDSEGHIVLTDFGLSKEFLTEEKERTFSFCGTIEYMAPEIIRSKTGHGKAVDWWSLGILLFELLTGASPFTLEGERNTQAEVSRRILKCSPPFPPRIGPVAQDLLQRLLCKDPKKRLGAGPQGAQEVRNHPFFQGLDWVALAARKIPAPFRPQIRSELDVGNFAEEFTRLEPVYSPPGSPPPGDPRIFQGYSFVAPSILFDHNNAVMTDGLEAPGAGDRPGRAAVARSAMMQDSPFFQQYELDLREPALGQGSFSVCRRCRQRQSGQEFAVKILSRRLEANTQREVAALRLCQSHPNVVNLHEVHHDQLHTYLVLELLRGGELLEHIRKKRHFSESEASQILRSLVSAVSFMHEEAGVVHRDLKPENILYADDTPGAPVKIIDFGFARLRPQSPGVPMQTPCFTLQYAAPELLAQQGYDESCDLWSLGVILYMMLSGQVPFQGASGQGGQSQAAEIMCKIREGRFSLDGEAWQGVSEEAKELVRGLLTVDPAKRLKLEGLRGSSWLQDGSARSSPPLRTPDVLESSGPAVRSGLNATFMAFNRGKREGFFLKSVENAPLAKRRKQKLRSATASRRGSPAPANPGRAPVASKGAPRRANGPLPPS
Sequence of PIK3CA(M1043I) (P42336 whole entry M1043I): as the sequence (P42336 whole entry H1047Y) above, with M1043I, Y1047H counted along it

What does the source list for Cc1cn(-c2cc(NC(=O)c3ccc4c(c3)CN(c3cncnc3)C[C@@H]4C)cc(C(F)(F)F)c2)cn1 [Compound 6j]?
remaining activity at 1 µM (PIK3CA(M1043I)): 93%; remaining activity at 1 µM (PFTK1): 94%; remaining activity at 1 µM (PLK2): 100%; remaining activity at 1 µM (FLT3): 56%; remaining activity at 1 µM (SNARK): 100%; remaining activity at 1 µM [1]: 72%; remaining activity at 1 µM (FLT3(ITD,F691L)): 100%; remaining activity at 1 µM (MAP4K2): 93%; remaining activity at 1 µM (CSNK1A1L): 69%; remaining activity at 1 µM (TNNI3K): 65%; remaining activity at 1 µM (PHKG2): 79%; remaining activity at 1 µM (MAK): 95%; remaining activity at 1 µM (ITK): 97%; remaining activity at 1 µM (CSNK1G3): 72%; remaining activity at 1 µM (DAPK3): 69%; remaining activity at 1 µM [2]: 100%; remaining activity at 1 µM (DCAMKL1): 100%; remaining activity at 1 µM (EPHA8): 21%; remaining activity at 1 µM (PIK3C2B): 100%; remaining activity at 1 µM (PAK2): 85%; remaining activity at 1 µM (TEC): 96%; remaining activity at 1 µM (PIK3CA(H1047L)): 100%; remaining activity at 1 µM (TIE1): 74%; remaining activity at 1 µM [3]: 92%; remaining activity at 1 µM (EGFR(T790M)): 100%; remaining activity at 1 µM (ALK(C1156Y)): 100%; remaining activity at 1 µM (CDK9): 92%; remaining activity at 1 µM (MEK5): 100%; remaining activity at 1 µM (PIK3CA(H1047Y)): 45%; remaining activity at 1 µM (TBK1): 95%; remaining activity at 1 µM (LRRK2): 100%; remaining activity at 1 µM (ERBB3): 100%; remaining activity at 1 µM (PIKFYVE): 100%; remaining activity at 1 µM (TAOK1): 100%
